# Laboratory results from publication PMC9504056, “A Novel L-Phenylalanine Dipeptide Inhibits the Growth and Metastasis of Prostate Cancer Cells via Targeting DUSP1 and TNFSF9” (International Journal of Molecular Sciences, 2022).
# Legend:
# DUSP1 = target: T1, DUSP1 (Homo sapiens, UniProt P28562); test: cellular thermal shift assay (CETSA), Western blot; format: cell-based; details: PC3 cells treated 2 h with 0.01-100 µmol/L; heated at 53 °C for 3 min
# T1 construct: endogenous protein in human PC3 prostate cancer cells, detected by Western blot (Abcam ab61201)
# T1 sequence (P28562 1-367): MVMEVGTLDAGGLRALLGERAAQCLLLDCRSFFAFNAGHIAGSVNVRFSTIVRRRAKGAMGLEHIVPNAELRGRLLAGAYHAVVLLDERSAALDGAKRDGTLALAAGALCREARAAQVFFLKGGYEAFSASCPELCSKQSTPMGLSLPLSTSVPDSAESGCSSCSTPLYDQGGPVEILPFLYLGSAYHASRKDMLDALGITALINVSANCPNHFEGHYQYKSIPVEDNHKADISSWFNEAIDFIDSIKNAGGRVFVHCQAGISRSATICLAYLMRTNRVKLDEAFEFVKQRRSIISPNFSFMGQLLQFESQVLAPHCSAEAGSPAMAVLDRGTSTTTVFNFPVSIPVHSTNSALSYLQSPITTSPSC
# TNFSF9 = target: T2, TNFSF9 (Homo sapiens, UniProt P41273); test: cellular thermal shift assay (CETSA), Western blot; format: cell-based; details: PC3 cells treated 2 h with 0.01-100 µmol/L; heated at 53 °C for 3 min
# T2 construct: endogenous protein in human PC3 prostate cancer cells, detected by Western blot (Abcam ab68185)
# T2 sequence (P41273 whole entry): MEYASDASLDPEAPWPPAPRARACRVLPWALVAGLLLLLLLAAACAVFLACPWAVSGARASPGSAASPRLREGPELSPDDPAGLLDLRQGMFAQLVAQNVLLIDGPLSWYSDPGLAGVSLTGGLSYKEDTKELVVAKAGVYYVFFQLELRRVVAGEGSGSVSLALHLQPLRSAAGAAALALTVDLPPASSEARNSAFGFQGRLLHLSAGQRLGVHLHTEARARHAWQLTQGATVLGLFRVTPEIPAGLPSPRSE
compound,measurement,setting,value
CCN(CC)CCOc1ccc(C[C@H](NC(=O)c2ccc(OCc3ccccc3)cc2)C(=O)N[C@H](CO)Cc2ccccc2)cc1 [HXL131],"cellular thermal shift assay (CETSA), Western blot",DUSP1,HXL131 could stably bind DUSP1 and TNFSF9 proteins
same,"cellular thermal shift assay (CETSA), Western blot",TNFSF9,HXL131 could stably bind DUSP1 and TNFSF9 proteins
